Measurements taken from US8951752B2, “N-demethyase genes and uses thereof” (priority 2011, dated 2015).
Values joined by “and” are separate entries in the source; they are usually repeats but may differ in a detail not shown here. Identical values can stand only once.

Columns and labels:
[1] = target: T1, N-demethylase (Ndm: NdmA and NdmB subunits) (Pseudomonas putida, UniProt H9N289+H9N290); experiment: Methylxanthine N-demethylase activity assay with purified Ndm plus partially purified Ccr; format: biochemical, Pseudomonas putida CBB5; conditions: for Products identified: same products at 500 and 200 μM substrate; for Relative N-demethylase activity: relative to paraxanthine; for product formed from paraxanthine: 7.4 mU / 7.4 units of Ndm, 90 minutes
T1 construct: lane 3, natural Ndm purified from P. putida CBB5; made in house; host or cells: purified from the natural strain Pseudomonas putida CBB5 (DEAE, Phenyl and Q Sepharose); not recombinant
T1 sequence (H9N289 1-351): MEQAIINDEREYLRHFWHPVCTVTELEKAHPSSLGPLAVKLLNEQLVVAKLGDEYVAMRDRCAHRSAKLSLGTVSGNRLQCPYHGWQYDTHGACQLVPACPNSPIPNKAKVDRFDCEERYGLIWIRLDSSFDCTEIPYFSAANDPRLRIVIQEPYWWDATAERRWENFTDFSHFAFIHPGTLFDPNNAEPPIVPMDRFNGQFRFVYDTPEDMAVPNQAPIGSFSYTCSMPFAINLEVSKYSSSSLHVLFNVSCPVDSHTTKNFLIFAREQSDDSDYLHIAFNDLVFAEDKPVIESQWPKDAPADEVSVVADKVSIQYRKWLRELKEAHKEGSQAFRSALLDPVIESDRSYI
T1 sequence (H9N290 1-355): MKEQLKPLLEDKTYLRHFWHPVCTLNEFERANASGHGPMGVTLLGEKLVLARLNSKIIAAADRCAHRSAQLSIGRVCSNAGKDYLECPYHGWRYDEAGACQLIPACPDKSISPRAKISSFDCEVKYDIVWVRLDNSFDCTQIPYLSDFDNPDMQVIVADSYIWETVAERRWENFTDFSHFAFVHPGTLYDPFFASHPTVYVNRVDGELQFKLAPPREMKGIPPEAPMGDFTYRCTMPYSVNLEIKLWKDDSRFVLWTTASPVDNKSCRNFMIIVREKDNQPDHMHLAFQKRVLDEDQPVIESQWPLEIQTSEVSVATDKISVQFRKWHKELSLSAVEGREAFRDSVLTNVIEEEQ
Protocol: Methylxanthine N-demethylase activity assay contained, in 1-mL total volume, 0.5 mM methylxanthine, 1 mM NADH, 50 μM Fe(NH4)2(SO4)2, and an appropriate amount of Ndm (0.08-7.5 mg protein, depending on purity of the protein) in 50 mM KPi buffer. Approximately 4 U of partially purified Ccr was added to reaction mixture when assaying Ndm in Phenyl Sepharose and Q Sepharose eluant-fractions (Ccr was not added to the enzyme reaction mixture when assaying Ndm activity in DEAE Sepharose eluant-fractions because Ccr co-eluted with Ndm). The reaction mixture was incubated at 30° C. with 300 rpm shaking on an incubating microplate shaker (VWR). Periodically, a small aliquot was sampled from the reaction mixture and mixed with equal volume of acetonitrile for quantifying concentrations of methylxanthines and N-demethylated products by HPLC. One unit of N-demethylase activity was defined as the consumption of one μmole methylxanthine per minute. When Ndm was coupled with the reductase and ferredoxin components of naphthalene dioxygenase of Pseudomonas sp. strain 9816 (Haigler & Gibson, 1990a; Haigler & Gibson, 1990b), 30 and 100 μg of the respective proteins were used. Spinach ferredoxin reductase and ferredoxin were also substituted for Ccr as described by Subramanian et al. (1979).
Determination of Kinetic Parameters. Apparent kinetic parameters of Ndm were determined by measuring the initial rate of disappearance (vo) of paraxanthine or 7-methylxanthine in 50 mM KPi buffer (pH 7.5) at 30° C. The paraxanthine and 7-methylxanthine concentrations ([S]) used in these experiments were from 20 to 500 μM. Substrates were incubated with Ndm and Ccr under standard conditions for 15 minutes. At 1, 5, 10, and 15 minutes, samples were removed from the reaction mixtures to quantitate substrate concentrations by HPLC. Plots of substrate concentrations against time were used to determine the initial rates of disappearance of substrates which were linear over 15 minutes. The apparent kinetic parameters were determined from Michaelis-Menten plots of Vo against [S] fitted with the equation
Determination of Oxygen Requirement. Oxygen consumption by Ndm during N-demethylation of paraxanthine was determined in a closed reaction vessel equipped with a Clarke-type oxygen electrode (Digitial Modell 0, Rank Brothers Ltd., Cambridge, England). The electrode was calibrated by using glucose oxidase (Sigma) and glucose for consumption of oxygen. Ndm activity assay was performed at 30° C. in a total volume of 1 ml of air-saturated 50 mM KPi buffer (pH 7.5) with 100 μM paraxanthine, 200 μM NADH, 50 μM Fe(NH4)2(SO4)2, 0.2 mg purified Ndm, and 4 U partially purified Ccr. The reaction was initiated by adding Ndm and partially purified Ccr after equilibration of all other reaction components for 3.3 minutes. After 13 minutes, a 100-μL aliquot was withdrawn from the reaction, immediately mixed with equal volume of acetonitrile to stop the enzyme reaction, and analyzed for N-demethylation product by HPLC. Background oxygen consumption, possibly due to NADH oxidase enzyme activity in the partially purified Ccr, was quantitated in control reactions containing all reaction components except paraxanthine.
Formaldehyde Determination. […] Twenty μL Nash reagent was added to 50 μl Ndm reaction sample plus 50 μl acetonitrile. This mixture was incubated at 51° C. for 12 minutes.

NdmA-His6 = target: T2, NdmA-His6 (Pseudomonas putida, UniProt H9N289); experiment: Methylxanthine N-demethylase assay and kinetics, NdmA-His6 with His6-NdmD; format: biochemical, Pseudomonas putida CBB5
T2 construct: made in house; host or cells: E. coli BL21(DE3)
T2 sequence (H9N289 1-351): T1 sequence (H9N289 1-351)
Protocol: (§1) Methylxanthine N-demethylase activity assay contained, in 1-ml total volume, 0.5 mM methylxanthine, 1 mM NADH, 50 μM Fe(NH4)2(SO4)2, and an appropriate amount of NdmA-His6 or NdmB-His6 (7.4 μg-2.5 mg protein depending on substrate specificity) in 50 mM KPi buffer (pH 7.5). Approximately 4 U of partially purified reductase, prepared as described previously (Summers et al., 2011) or 59 U of purified His6-NdmD was added to reaction mixture. Catalase from bovine liver (4,000 U) was also added to reactions containing His6-NdmD. The reaction mixture was incubated at 30° C. with 300 rpm shaking on an incubating microplate shaker (VWR, Radnor, Pa.). Periodically, a small aliquot was sampled from the reaction mixture and mixed with equal volume of acetonitrile for quantifying concentrations of methylxanthines and N-demethylated products by HPLC. One unit of N-demethylase activity was defined as the consumption of one […] methylxanthine per minute.
(§2) Apparent kinetic parameters of NdmA-His6 and NdmB-His6 were determined by measuring the initial rate of disappearance (vo) of methylxanthines in 50 mM KPi buffer (pH 7.5) at 30° C. The initial substrate concentrations (ESI) used in these experiments were from 25 to 500 μM. Substrates were incubated with His6-NdmD plus either NdmA-His6 or NdmB-His6 under standard conditions for 15 minutes. At 1, 5, 10, and 15 minutes, samples were removed from the reaction mixtures to quantitate substrate concentrations by HPLC. Plots of substrate concentrations against time were used to determine the initial rates of disappearance of substrates which were linear over 15 minutes. The apparent kinetic parameters were determined from Michaelis-Menten plots of vo against [S] fitted with the equation

NdmB-His6 = target: T3, NdmB-His6 (Pseudomonas putida, UniProt H9N290); experiment: Methylxanthine N-demethylase assay and kinetics, NdmB-His6 with His6-NdmD; format: biochemical, Pseudomonas putida CBB5
T3 construct: made in house; host or cells: E. coli BL21(DE3)
T3 sequence (H9N290 1-355): T1 sequence (H9N290 1-355)
Protocol: as §1, §2

[2] = system: cell extracts prepared from P. putida CBB5; experiment: NADH-dependent N-demethylase activity of CBB5 cell extracts; format: biochemical, Pseudomonas putida CBB5; conditions: 0.5 mM substrate, 7.2 mg mL^−1 protein
Pseudomonas putida CBB5 = experiment: Resting cell degradation of caffeine in coffee extract, black tea extract and buffer by CBB5; format: cell-based
[3] = system: recombinant E. coli cells that contain NdmABCD; experiment: Conversion by recombinant E. coli cells without NdmE; format: cell-based; conditions: absence of NdmE
[4] = system: E. coli cells expressing NdmABCDE; experiment: Conversion by recombinant E. coli cells with NdmE; format: cell-based
bacteria = conditions: 0.1% concentration; cited from earlier work
His6-NdmD = His6-NdmD (Pseudomonas putida, UniProt H9N291); experiment: N-demethylase activity of purified His6-NdmD alone; format: biochemical, Pseudomonas putida CBB5
Chain of His6-NdmD (H9N291 1-588 with tags or gaps): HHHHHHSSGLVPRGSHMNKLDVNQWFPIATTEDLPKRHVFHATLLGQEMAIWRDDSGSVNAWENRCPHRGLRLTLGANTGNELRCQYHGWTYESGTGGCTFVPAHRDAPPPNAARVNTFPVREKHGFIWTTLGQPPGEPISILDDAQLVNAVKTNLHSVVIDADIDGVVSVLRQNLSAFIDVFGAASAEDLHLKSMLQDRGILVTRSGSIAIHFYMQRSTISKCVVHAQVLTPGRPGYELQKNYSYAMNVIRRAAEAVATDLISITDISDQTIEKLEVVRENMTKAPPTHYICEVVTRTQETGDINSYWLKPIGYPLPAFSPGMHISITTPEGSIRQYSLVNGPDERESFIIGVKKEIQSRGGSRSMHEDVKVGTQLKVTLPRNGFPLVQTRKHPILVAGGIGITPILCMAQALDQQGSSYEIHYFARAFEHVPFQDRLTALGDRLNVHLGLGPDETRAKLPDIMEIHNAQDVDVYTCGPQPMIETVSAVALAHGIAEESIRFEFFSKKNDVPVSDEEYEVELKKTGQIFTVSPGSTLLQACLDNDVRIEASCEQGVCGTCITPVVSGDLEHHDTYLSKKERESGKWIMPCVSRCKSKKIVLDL

Cn1c(=O)c2c(ncn2C)n(C)c1=O [Caffeine, 1,3,7-trimethylxanthine]
Products identified [1]: paraxanthine, and theobromine, and 7-methylxanthine, and xanthine
Relative N-demethylase activity ([1]; substrate conc. 200 μM): 48.2 ± 4.8
Relative N-demethylase activity ([1]; substrate conc. 500 μM): 30.8 ± 1.7
Product (NdmA-His6; NdmA-His6): Theobromine
Product (NdmA-His6; NdmA-His6, listed as caffeine): theobromine
Product (NdmB-His6; NdmB-His6): Paraxanthine
degradation rate compared with paraxanthine [2]: significantly slower
time for caffeine degradation (Pseudomonas putida CBB5; 18 mM (highest concentration) caffeine in buffer solution): 2 h
time for caffeine degradation (Pseudomonas putida CBB5; 18 mM caffeine in coffee extract): 6 h
time for caffeine degradation (Pseudomonas putida CBB5; diluted black tea extract (1 mM caffeine)): ≤ 0.667 h
time for caffeine disappearance (Pseudomonas putida CBB5; undiluted black tea extract (8 mM caffeine)): 40 min
conversion by cells [3]: 7-methylxanthine from caffeine, but not xanthine
conversion product [4]: xanthine
N-demethylation by NdmC fraction (NdmC): not N-demethylated
effect on protein synthesis in bacteria and yeast (bacteria): inhibits protein synthesis

Cn1cnc2[nH]c(=O)[nH]c(=O)c21 [7-Methylxanthine, 7-methylxanthine]
product formed from paraxanthine [1]: 126.9 ± 6.40 µM
product formed from paraxanthine ([1]; listed as 7-methylxanthine): 126.9 ± 6.4 µM
N-demethylation product present ([1]; from paraxanthine, after 13 minutes): Approximately 39.9 μM
Products identified [1]: xanthine
Relative N-demethylase activity ([1]; substrate conc. 200 μM): 664.2 ± 61.1
Relative N-demethylase activity ([1]; substrate conc. 500 μM): 455.7 ± 17.6
N-demethylase activity (NdmA-His6; NdmA): inactive
Km (NdmA-His6; NdmA-His6, 30° C., pH 7.5, ∞ where no activity): ∞
N-demethylase activity (NdmB-His6; NdmB): no activity
Km (NdmB-His6; NdmB-His6, 30° C., pH 7.5, ∞ where no activity): ∞
activity of purified His6-NdmD (His6-NdmD): no activity
conversion by cells [3]: remained untouched
conversion product [4]: xanthine
N-demethylation by NdmC fraction (NdmC): sole substrate
